Reference: patent publication US20210267900A1, “PROCESSING METHOD FOR DRUG SUBSTANCE PARTICLES OF NON-UNIFORM PARTICLE SIZE” (NIPPON ZOKI PHARMACEUTICAL CO., LTD., priority 2018, published 2021)
Several values for one entry are separate records, joined by “and”; a condition that tells them apart may be missing. Identical values can stand only once.

How the values were obtained:
[1] = Particle size distribution by sieving method (ro-tap-type sieve shaker); assay type: physicochemical; conditions: drug substance before processing, % by weight
From the text: (§1) In the present invention, the particle size distribution of each of the drug substance (A) and the powder (B) can be determined by a weight-based distribution evaluation by a sieving method (measurement device: a ro-tap-type sieve shaker or the like) and a volume-based distribution evaluation by a laser-diffraction method (also referred to as “a laser diffraction scattering method”) (measurement device: Mastersizer 2000 or Mastersizer 3000 [Malvern] or the like, dispersion compression air pressure: 2 to 4 bars).

[2] = Particle size distribution by laser-diffraction method (Mastersizer 2000); assay type: physicochemical; conditions: drug substance before processing
From the text: as §1

| Structure (SMILES) | particles each having a particle size of 60 μm or less [1] [%] | particles each having a particle size of 500 μm or more [1] [%] | particles each having a particle size of 50 μm or less [2] | particles each having a particle size of 500 μm or more [2] |
| --- | --- | --- | --- | --- |
| CC(=O)Nc1ccc(O)cc1 [Acetaminophen, acetaminophen] | 32.9 | 14 | 25.11 % by volume and 21.08 % by volume | 3.57 % by volume and 5.82 % by volume |
| CC(C)Cc1ccc(C(C)C(=O)O)cc1 (stereo not shown) [Ibuprofen, ibuprofen] | 27.2 | 11 |  |  |
| CC(C)C[C@H](CN)CC(=O)O [Pregabalin, pregabalin] | 14.5 |  |  |  |
